From patent publication US11192900B2, “Substituted 1,6-dihydropyridinones and 1,2-dihydroisoquinolinones as bet inhibitors” (NUVATION BIO INC., priority 2018, dated 2021) come the findings set out here.

The structures appear in SMILES notation. Read-outs that look alike come from different tables or passages of the source.

The target in one test is BRD2-1 (Homo sapiens (Human), UniProt P25440). The experiment in a line: Bromodomain and Extraterminal Domain (BET) Binding Assay. The method in brief:
(§1)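 AlphaScreen displacement of biotinylated H4 (1-21) K5/8/12/16Ac peptide, in 50 mM HEPES pH 7.5, 100 mM NaCl, 1 mg/ml BSA, 0.05% CHAPS, 0.5% DMSO. Protein-compound preincubation 30 min RT, then ligand 30 min, donor then acceptor beads 60 min dark. Inhibition versus plate controls; IC50 from 10-point titrations.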

A further test has as its target BRD2-2 (Homo sapiens (Human), UniProt P25440). Described as above. The method, boiled down: as §1
For a further test, the target named is BRD3-1 (Homo sapiens (Human), UniProt Q15059). The test is described as above. The method in brief: as §1
Chain of BRD3-1 (Q15059 34-140): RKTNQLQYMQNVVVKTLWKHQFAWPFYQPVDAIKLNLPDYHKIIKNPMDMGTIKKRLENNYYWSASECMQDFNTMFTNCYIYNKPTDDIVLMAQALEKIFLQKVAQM
The next test deals with BRD3-2 (Homo sapiens (Human), UniProt Q15059). The test is described as above. The method, boiled down: as §1
Chain of BRD3-2 (Q15059 306-415): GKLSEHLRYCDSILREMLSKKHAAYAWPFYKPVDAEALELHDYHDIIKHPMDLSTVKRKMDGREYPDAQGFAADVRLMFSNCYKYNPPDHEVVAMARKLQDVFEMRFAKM
A further test concerns the target BRD4-1 (Homo sapiens (Human), UniProt O60885). The test is described as above. The method in brief: as §1
In another test the target is BRD4-2 (Homo sapiens (Human), UniProt O60885). The description is as above. The method, boiled down: as §1
For another test, the target named is BRDT-1 (Homo sapiens (Human), UniProt Q58F21). Described as above. The method, boiled down:
as §1

The test system of a further test is Jurkat. As to the kind of experiment: Cell viability assay (XTT). The conditions noted are these: Homo sapiens, up to 72 hr. Format: cell-based. As to the method: (§2) A panel of BET-sensitive and insensitive cell lines were profiled for effect on cell viability using compound 3. Cells were cultured in the presence of inhibitors at various concentrations for up to 72 hr. For cell viability assays as previously described (Guo Y, et al. 2012. J Hematol Oncol 5:72; Chen Y, et al. 2016. Oncogene 35:2971-8), 0.08 mg/ml XTT (2,3-bis-(2-methoxy-4-nitro-5-sulfophenyl)-2H-tetrazolium-5-carboxanilide) and 8 μM phenazine methyl sulfate (PMS) were added to the cells at the end of the test compound or vehicle treatment duration, and absorbance at 450 nm was measured after 3 hr incubation at 37° C. Assays were performed in triplicates. IC50 values were estimated using a non-linear mixed effect model fitting a sigmoid curve to the experimental dose response data (Vis D J, et al. 2016. Pharmacogenomics 17(7):691-700).

The next test concerns K562. As to the kind of experiment: Cell viability assay (XTT). Format: cell-based. The conditions noted are these: Homo sapiens, up to 72 hr. The procedure: as §2
(Tetrazolium assays rely on reduction of a dye to a coloured formazan, in cell work by metabolically active cells.)

Another test concerns MV-4-11. The experiment in a line: Cell viability assay (XTT). The test is classed as cell-based. The conditions noted are these: Homo sapiens, MV4-11; MV-4-11, XTT, up to 72 hr. The procedure: as §2
The next test has as its system OCI-LY18. The experiment in a line: Cell viability assay (XTT). The test is classed as cell-based. The conditions noted are these: Homo sapiens, up to 72 hr. The procedure:
as §2

Test [1] relates to IEC-6 rat intestinal epithelial cell line. As to the kind of experiment: IEC-6 cell viability, Protocol A (toxicity to non-cancerous cells). The test is classed as cell-based. Conditions: IEC-6, 3000 cells per well, 96 hrs. As to the method:
The effects of test compounds were also studied in the IEC-6 rat intestinal epithelial cell line to assess potential toxicity to non-cancerous cells. The cells were harvested during the logarithmic growth period and counted. In Protocol A, cells were seeded at a count of 3000 cells per well/100 μl in a 96-well plate. After seeding, cells were incubated at 37° C., 5% CO2 for 24 hr. Cells were treated with test compounds at 8 concentrations within a desired concentration range (e.g. 5 nM-10 μM) for generation of dose response curves by preparing serial dilutions of the test compound in DMSO which were further diluted with culture medium and then added to each well. The plate was further incubated for another 96 hrs in humidified incubator at 37° C. and 5% CO2. The assay was terminated by addition of resazurin (# R7017, Sigma). The plate was incubated for 4 hr at 37° C., 5% CO2 and fluorescence was measured using excitation and emission wavelengths of 535 and 590 nm, respectively. Cell viability data were plotted using GraphPad Prism (GraphPad Software, Inc., San Diego, Calif.). In addition, a nonlinear regression model with a sigmoidal dose response and variable slope within GraphPad Prism was used to calculate the IC50 value of individual test compounds. […]

The test system is the same in test [2]. The experiment in a line: IEC-6 cell viability, Protocol B (toxicity to non-cancerous cells). Conditions: Rattus norvegicus; IEC-6, 4000 cells per well, 48 hrs. Format: cell-based. As to the method:
The effects of test compounds were also studied in the IEC-6 rat intestinal epithelial cell line to assess potential toxicity to non-cancerous cells. The cells were harvested during the logarithmic growth period and counted. In Protocol A, cells were seeded at a count of 3000 cells per well/100 μl in a 96-well plate. After seeding, cells were incubated at 37° C., 5% CO2 for 24 hr. Cells were treated with test compounds at 8 concentrations within a desired concentration range (e.g. 5 nM-10 μM) for generation of dose response curves by preparing serial dilutions of the test compound in DMSO which were further diluted with culture medium and then added to each well. The plate was further incubated for another 96 hrs in humidified incubator at 37° C. and 5% CO2. The assay was terminated by addition of resazurin (# R7017, Sigma). The plate was incubated for 4 hr at 37° C., 5% CO2 and fluorescence was measured using excitation and emission wavelengths of 535 and 590 nm, respectively. Cell viability data were plotted using GraphPad Prism (GraphPad Software, Inc., San Diego, Calif.). In addition, a nonlinear regression model with a sigmoidal dose response and variable slope within GraphPad Prism was used to calculate the IC50 value of individual test compounds. Protocol B was the same as Protocol A except that cells were seeded at a count of 4000 cells per well/100 μl in a 96-well plate, and the incubation with test compound was for 48 hrs instead of 96 hrs.

The test system of the next test is MV4-11 cells. The experiment in a line: Cell viability assay after wash-off (FITC-annexin V / 7-AAD flow cytometry). The test is classed as cell-based, human. Conditions: MV4-11, 0.5 or 2 μM for 2 or 4 hr, total 48 hr. As to the method:
MV4-11 cells were incubated with compound (at a concentration of 0.5 or 2 μM) or mivebresib (at a concentration of 0.5 or 2 μM) for 2 or 4 hr before wash-off with culture medium and re-plated in fresh culture medium for a total of 48 hr. Cells were stained with FITC-annexin V and 7-AAD before flow cytometric analysis using a Stratedigm flow cytometer. Viable cells are negative for FITC-annexin V and 7-AAD.
Background: In flow cytometry, cells or beads pass a laser one at a time.

Chain of BRD2-1 (P25440 74-180): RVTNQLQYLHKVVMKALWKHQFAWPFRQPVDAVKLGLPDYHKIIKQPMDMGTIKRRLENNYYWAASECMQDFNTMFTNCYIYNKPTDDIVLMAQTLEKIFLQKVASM
Chain of BRD2-2 (P25440 344-453): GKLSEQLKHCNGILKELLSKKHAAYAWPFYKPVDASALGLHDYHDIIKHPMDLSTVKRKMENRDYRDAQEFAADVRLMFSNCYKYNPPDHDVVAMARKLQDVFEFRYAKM

On to `C=CS(=O)(=O)Nc1ccc(Oc2ccc(F)cc2F)c(-c2cc(NC)c(=O)n(C)c2)c1` [Compound 3, N-(4-(2,4-difluorophenoxy)-3-(1-methyl-5-(methylamino)-6-oxo-1,6-dihydropyridin-3-yl)phenyl)ethenesulfonamide], for which the IC50 (in general, the concentration that inhibits the measured activity by half) was found to be 16 nM on BRD2-1; 12 nM on BRD2-2; 35 nM on BRD3-1; 29 nM on BRD3-2; 24 nM at BRD4-1 (Table 2, read-out: BET IC50 BRD4-1); 24 nM at BRD4-1 (Table 3, read-out: BRD4-1 IC50). Moreover, the IC50 was 21 nM at BRD4-2 (Table 2, read-out: BET IC50 BRD4-2); 21 nM on BRD4-2 (Table 3, read-out: BRD4-2 IC50); 31 nM on BRDT-1; 6000 nM with Jurkat; 5000 nM in the test on K562; 100 nM in the test on MV-4-11. The figures for the IC50 (in the test on OCI-LY18; in [1]; in test [2]) were 420 nM, 339 nM and 173 nM, respectively. For the same compound, in the test on MV4-11 cells, the “cell inhibition activity after transient exposure (viable cells after wash-off)” value was “sustained cell inhibition activity”.
